Measured values published in the supplement of paper PMC10307832.

Columns and labels:
Experiment in all cases: relative viability (nuclei count vs DMSO), 5 days (fraction); higher = more cells survive
[1] = compound: C(C(=O)C(=O)O)Br [Bromopyruvate] + Cc1nc(NC(=O)N2CCC[C@H]2C(N)=O)sc1-c1ccnc(C(C)(C)C(F)(F)F)c1 [Alpelisib] (partner 2 µM)
How it was run: (§1)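 Cells from lung cancer lines were seeded into 1536-well plates and, one day later, dosed by pin tool. Treatments were either a single drug or a fixed dose of an anchor drug with five library-drug doses (not always all listed) in √10 steps. After 5 days, nuclei were stained in a one-step fixation (final 0.05% Triton X-100, 1% formaldehyde, 1 ug/ml Hoechst) and counted on 4× images, and relative viability is the treated-to-vehicle nuclei ratio, as the median of duplicate plates.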

Bromopyruvate + Olaparib = compound: C(C(=O)C(=O)O)Br [Bromopyruvate] + O=C(c1cc(Cc2n[nH]c(=O)c3ccccc23)ccc1F)N1CCN(C(=O)C2CC2)CC1 [Olaparib] (partner 8 µM)
How it was run: as §1

[2] = compound: CC(O)(CS(=O)(=O)c1ccc(F)cc1)C(=O)Nc1ccc(C#N)c(C(F)(F)F)c1 [Bicalutamide] + CC(C)C[C@H](NC(=O)[C@H](Cc1ccccc1)NC(=O)c1cnccn1)B(O)O [Bortezomib] (partner 0.002 µM)
How it was run: as §1

[3] = compound: CC(O)(CS(=O)(=O)c1ccc(F)cc1)C(=O)Nc1ccc(C#N)c(C(F)(F)F)c1 [Bicalutamide] + C[C@]1(O)C[C@@H](c2nc(-c3ccc4ccc(-c5ccccc5)nc4c3)c3c(N)nccn32)C1 [Linsitinib] (partner 1 µM)
How it was run: as §1

## NCI-H2023
[1]; first compound 1 µM
  relative viability: 0.613
[1]; first compound 3.162 µM
  relative viability: 0.728
[1]; first compound 10 µM
  relative viability: 0.593
[1]; first compound 31.62 µM
  relative viability: 0.646
[1]; first compound 100 µM
  relative viability: 0.542
Bromopyruvate + Olaparib; first compound 1 µM
  relative viability: 0.452
Bromopyruvate + Olaparib; first compound 3.162 µM
  relative viability: 0.455
Bromopyruvate + Olaparib; first compound 10 µM
  relative viability: 0.465
Bromopyruvate + Olaparib; first compound 31.62 µM
  relative viability: 0.544
Bromopyruvate + Olaparib; first compound 100 µM
  relative viability: 0.551
[2]; first compound 0.08 µM
  relative viability: 1.09
[2]; first compound 0.253 µM
  relative viability: 0.932
[2]; first compound 0.8 µM
  relative viability: 1.11
[2]; first compound 2.53 µM
  relative viability: 0.8
[3]; first compound 0.08 µM
  relative viability: 0.721
[3]; first compound 0.253 µM
  relative viability: 0.723
[3]; first compound 0.8 µM
  relative viability: 0.597
[3]; first compound 2.53 µM
  relative viability: 0.715
